We go through nine molecules from PMC10693550, “Programmable de novo designed coiled coil-mediated phase separation in mammalian cells” (Nature Communications, 2023).

The term Kd denotes the free concentration of one partner at which half of the binding sites on the other are occupied at equilibrium, for simple one-to-one binding. A higher Kd goes with weaker binding.

Assay [1] has as its system FKBP/FRB. The experiment in a line: Rapamycin-induced condensate assembly, split two-chain system with FKBP and FRB domains, NIH-3T3 cells. The note with it: 1 μM rapamycin; NIH-3T3 cells expressing Cit(S1-S3)3-SAH, BFP(S2)3-gsFKBP and FRB(S4)3-gs; none with vehicle control. Type of assay: cell-based, H.sapiens. The source says: (§1) Our final goal was to engineer new properties into condensates and to provide regulation of CC-LLPS assembly or disassembly. […] To introduce chemically regulated assembly, we incorporated FKBP into the first chain and FRB domain into the second chain of the split protein. Upon the addition of rapamycin, those two domains heterodimerize and thus extend the length of the polypeptide.
(§2) Fig. 6 Design of chemical regulation of CC-LLPS. a One polypeptide chain of a condensate-forming pair BFP-(S2)3(S4)3-gs, was separated into two chains, each with 3 CC domains BFP-(S2)3-gs and (S4)3-gs. […] Scale bars, 10 μm.

Assay [2] relates to FKBP/FRB. The experiment in a line: Rapamycin-induced assembly of single-chain condensates from FKBP/FRB-fused APPAP halves, HEK293T cells. Format: cell-based, H.sapiens. The note with it: 1 μM rapamycin; HEK293T cells expressing Cit-APPAP-gs-FKBP and FRB-APPAP-gs; none with DMSO even 1 hour post-addition.
Description: as §1, §2

For assay [3], the system named is FKBP/FRB. Nature of the assay: Rapamycin-regulated split TEVp protease dissolution of condensates, HEK293T cells. Type of assay: cell-based, H.sapiens. The note with it: 1 μM rapamycin; HEK293T cells with TEVp site in one condensate-forming chain and rapamycin-regulated split TEVp.
Description: as §2

Assay [4] addresses complementary peptide. Nature of the assay: Isothermal titration calorimetry (ITC) of orthogonal CC peptide pairs. Format: binding. To be noted: 50 mM Tris pH 7.5, 150 mM NaCl, 1 mM TCEP, uncertainty from Monte Carlo simulation of the fit. The procedure: MicroCal PEAQ-ITC (Malvern) was used to measure the equilibrium dissociation constant (Kd) of orthogonal CC pairs. A 40-µl injection syringe was filled with the peptide solution (1 mM P5f, P13f; 5.6 mM S1h or 5.4 mM S3h) in 50 mM Tris pH of 7.5, 150 mM NaCl, and 1 mM TCEP. The samples were injected into an ITC cell (volume 200 µl) filled with a complementary peptide (100 µM P6f or P14f and 560 µM S2h or 540 µM S4h) in a matching buffer through a 19-step process. The injection volumes were 2 µl and were spaced 120 s apart, except for the first priming injection of 0.4 µl with 150 s spacing. Raw thermograms were integrated with the software NITPIC[83], interaction analysis was done with SEDPHAT[84], and titration curves were visualized with a companion GUSSI software. Monte Carlo simulation for non-linear regression, aligning the model function with experimental values 1000 times was used to obtain uncertainties in the fitted model.
Supplementary Figure 2: Binding analysis between the weak 3-heptad and strong 4-heptad CC forming segment using isothermal titration calorimetry (ITC). a) For peptide pair S1h + S2h peptide concentration in 40 µl injection syringe was 5.6 mM for S1h and concentration of complementary peptide S2h in ITC cell (volume 200 µl) was 560 […]
concentration in 40 µl injection syringe was 5.4 mM S3h and concentration of complementary peptide S4h in ITC cell (volume 200 µl) was 540 µM.
± 0.5 kcal/mol. For peptide pair c) P5f + P6f and d) P13f + P14f, which are 4-heptad CC.
Peptide concentration in 40 µl injection syringe was 1 mM for P5f and P13f and concentration […]
± 0.5 µM and ΔH -13.7 +- 0.6 kcal/mol and d) Kd 2.3 ± 0.2 µM and ΔH -14.7 ± 0.6 kcal/mol.
All the peptides were dissolved in a matching buffer 50 mM Tris pH of 7.5, 150 mM NaCl, […]
(1 picture or pasted object on this page, not shown here)

The target in assay [5] is T1, S4h.
T1 chain: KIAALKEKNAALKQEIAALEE
Nature of the assay: ITC; MicroCal PEAQ-ITC; syringe peptide (1 mM P5f, P13f; 5.6 mM S1h or 5.4 mM S3h) injected into the cell with the complementary peptide (100 µM P6f or P14f; 560 µM S2h or 540 µM S4h); 50 mM Tris pH 7.5, 150 mM NaCl, 1 mM TCEP; concentrations of the S peptides not stated. The note with it: both partners purified. A general note: ITC needs no label: the signal is the heat of the interaction.

Assay [6] addresses T2, P6f.
T2 chain: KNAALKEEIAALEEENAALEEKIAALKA
The assay is described as above. The note with it: both partners purified.

The target in assay [7] is T3, S2h.
T3 chain: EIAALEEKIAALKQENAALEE
The assay is described as above. To be noted: both partners purified.

Assay [8] has as its target T4, P14f.
T4 chain: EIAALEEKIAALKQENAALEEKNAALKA
The assay is described as above. To be noted: both partners purified.

Where [9] appears, read: 3-heptad Sh pairs, 5.6 mM S1h or 5.4 mM S3h in syringe into 560 µM S2h or 540 µM S4h in cell.
[10] abbreviates: 4-heptad pairs, 1 mM P5f or P13f in syringe into 100 µM P6f or P14f in cell.

No end group written: not given here.

`CO[C@H]1C[C@@H]2CC[C@@H](C)[C@@](O)(O2)C(=O)C(=O)N2CCCC[C@H]2C(=O)O[C@H]([C@H](C)C[C@@H]2CC[C@@H](O)[C@H](OC)C2)CC(=O)[C@H](C)/C=C(\C)[C@@H](O)[C@@H](OC)C(=O)[C@H](C)C[C@H](C)/C=C/C=C/C=C/1C` [rapamycin, Rapamycin]: the “time after addition at which condensates started to form” value in assay [1] was found to be 20 min. Moreover, the “condensate formation after addition (in words)” value in assay [2] is recorded as “after a few minutes”. For the same molecule, in assay [3], the “dissolution of condensates after addition (in words)” value is “dissolution of condensates after a few minutes”.
In assay [4] (setting [9]), EIAALEEENAALEQKIAALKE [S3h-S4h] showed a Kd of 340 ± 70 µM.
The molecule ENAALEEKIAALKEKNAALKEEIAALEA [P5f-P6f] returned a Kd in assay [4] (setting [10]) of 5.9 ± 0.5 µM.
KIAALKEEIAALEQKNAALKE [S1h-S2h]: the equilibrium dissociation constant (Kd) in assay [4] (setting [9]) was 2300 ± 1500 µM.
Regarding “KIAALKEEIAALEQKNAALKEENAALEA [P13f-P14f]”, binding in assay [4] (setting [10]) was characterised by a dissociation constant (Kd) of 2.3 ± 0.2 µM.
EIAALEEENAALEQKIAALKE [S3h]: binding in assay [5] was put at a Kd of 340 ± 70 µM.
Molecule ENAALEEKIAALKEKNAALKEEIAALEA [P5f] gave a Kd in assay [6] of 5.9 ± 0.5 µM.
In assay [7], KIAALKEEIAALEQKNAALKE [S1h] registered a Kd of 2300 ± 1500 µM.
KIAALKEEIAALEQKNAALKEENAALEA [P13f]: in assay [8], the affinity, expressed as Kd, was 2.3 ± 0.2 µM.
